Assay results reported in patent publication US20230122219A1, “IRAK DEGRADERS AND USES THEREOF” (Kymera Therapeutics, Inc., priority 2020, published 2023).

Columns and labels:
IRAK4 [1] = target: T1, IRAK4 (Homo sapiens, UniProt Q9NWZ3); assay: IRAK4 MSD Degradation in OCI-LY10; assay type: cell-based; parameters: endogenous in cells; host or cells: OCI-LY10; conditions: OCI-LY10 cells, 4 hrs, Meso Scale Discovery
T1 sequence (Q9NWZ3 1-460): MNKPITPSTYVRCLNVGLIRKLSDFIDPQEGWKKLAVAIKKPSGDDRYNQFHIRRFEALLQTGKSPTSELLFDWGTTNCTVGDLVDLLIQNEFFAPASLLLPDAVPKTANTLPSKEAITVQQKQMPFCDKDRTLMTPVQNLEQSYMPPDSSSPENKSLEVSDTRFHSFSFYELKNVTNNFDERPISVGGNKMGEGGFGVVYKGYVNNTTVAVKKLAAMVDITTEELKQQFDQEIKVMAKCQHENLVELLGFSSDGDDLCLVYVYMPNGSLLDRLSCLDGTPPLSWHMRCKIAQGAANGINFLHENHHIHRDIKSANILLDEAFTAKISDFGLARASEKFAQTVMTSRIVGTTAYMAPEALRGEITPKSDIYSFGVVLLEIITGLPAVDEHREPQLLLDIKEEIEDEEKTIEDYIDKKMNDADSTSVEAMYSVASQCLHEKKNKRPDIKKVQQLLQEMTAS
Protocol: Degradation of IRAK4 in OCI-LY10 was quantitatively measured using Meso Scale Discovery technology. OCI-LY10 cells were seeded in 96-well plates (Corning 3799) with a density of 300,000 cells per well in 100 μL fresh media. Compounds were then added to the assay plates with a final top concentration of 1 to 10 μM in a 1:3 dilution series with total of 8 doses. The assay plates were then incubated for 4 to 24 hours at 37° C. under 5% CO2. The assay plates were then centrifuged for 5 minutes and the cell pellets were treated with 100 μL/well RIPA lysis buffer (Boston BioProducts BP-115D) with proteinase inhibitors. To prepare MSD assay plates (Meso Scale Discovery Catalog number L15XA-3), the plates were coated with […] capture antibody (mouse Anti-IRAK4 antibody [2H9], ab119942) in PBS, at 40 μL/well. […] The assay plates were then incubated at room temperature for 1 hour, washed 3 times with 150 μL/well TBST buffer, and 150 μL/well MSD reading buffer (Meso Scale Discovery catalog number R92TC-2) was added. The plates were then analyzed by a MSD reader (Meso Scale Discovery, Model Quick Plex SQ 120). The data was then analyzed by software Prism 7.0 from GraphPad and the dose-depended IRAK4 degradation were fit using a three-parameter logistic equation to calculate DC50. […]

IRAK4 [2] = target: T1, IRAK4; assay: Human Whole Blood IRAK4 Degradation (whole blood monocyte, flow cytometry); assay type: cell-based; parameters: Whole blood was collected in heparinized tubes and plated on the same day as draw (day 0); from tissue; host or cells: human whole blood (CD14-positive monocytes gated by flow cytometry); conditions: human whole blood monocytes, read-out: IRAK4 degradation in whole blood: Average external Abs DC50
Protocol: Whole blood was collected in heparinized tubes and plated on the same day as draw (day 0). Whole blood was aliquoted into deep well plates. Compound plates were prepared and a 10 point, 5-fold dilution was performed with a final DMSO concentration of 0.1%. Compound was added to whole blood deep well plate, sealed and incubated at 37° C., 5% C02 for 20 hours (for 4 hour treatment, compounds were prepared and added the following day). Following the treatment incubation period (day 1), BD lyse fix (BD#558049) was added to the whole blood plate, placed on plate shaker for 30 seconds and incubated for 10 mins at room temperature. Whole blood was then spun down and washed two times with PBS/0.5% BSA, aspirated to pellet and placed into −80° C. freezer until further processing for flow. On the flow run day, whole blood plates were thawed and samples were transferred to PCR plates. The pre-perm staining cocktail (CD3 Ax488/CD8 BUV805/CD14 BUV395/CD16/56 BV711/CD19 BV785) was added to samples and incubated for 30 minutes at room temperature. Samples were washed two times and permeabilized with Methanol for 10 minutes at 4° C. […] Twenty hour dose curves were calculated using a 4 parameter logistic regression curve fit, no constraints (Top doses were removed if hook effects were observed and the bottom was constrained to 0). […]

DC50 (IRAK4 [1]): < 0.05 µM
DC50 (IRAK4 [2]): < 0.05 µM
SMILES: CN(C[C@H]1CC[C@H](n2cc(NC(=O)c3cnn4cccnc34)c(C(F)F)n2)CC1)C1CCN(c2cccc3c2n(C)c(=O)n3C2CCC(=O)NC2=O)CC1 (some centres unmarked) [I-1]
